From patent US20050239656A1, “Pyridine compounds or salts thereof and herbicides containing the same” (priority 2002, published 2005)

Assays:
[1] = system: barnyardgrass; assay: Test Example 1: foliage treatment, upland pot test; format: in vivo, Echinochloa crus-galli L.; settings: observed 18th to 23rd day, 0 = non-treated, 100 = complete kill
Source text: (§1) Upland field soil was put into a 1/170,000 ha pot, and seed of various plants were sown. Then, when the plants reached predetermined leaf stages ((1) barnyardgrass: 1.3 to 2.8 leaf stages, (2) crabgrass: 1.0 to 2.8 leaf stages, (3) green foxtail: 1.3 to 2.6 leaf stages, (4) redroot pigweed: 0.1 to 1.2 leaf stages, (5) prickly sida: 0.1 to 1.2 leaf stages, (6) velvetleaf: 0.1 to 1.2 leaf stages, (7) tall morningglory: 0.1 to 1.5 leaf stages, (8) rice: 1.2 to 2.6 leaf stages, (9) wheat: 1.3 to 2.4 leaf stages, (10) corn, 2.1 to 3.2 leaf stages, (11) soybean: 0.1 to 0.4 leaf stage), a wettable powder or emulsifiable concentrate having the compound of the present invention formulated in accordance with a usual formulation method, was weighed so that the active ingredient would be a predetermined amount, and diluted with water in an amount of 500 L/ha. To the diluted solution, 0.1% (v/v) of agricultural spreader was added. The herbicide thus adjusted was applied by a small size sprayer for foliage treatment. On the 18th to 23rd days after the application of the herbicide, the growth of the respective plants was visually observed, and the herbicidal effects were evaluated by the growth controlling degrees (%) ranging from 0 (equivalent to the non-treated plot) to 100 (complete kill), whereby the results shown in Table 3, were obtained.

[2] = system: green foxtail; assay: Test Example 1: foliage treatment, upland pot test; format: in vivo, Setaria viridis L.; settings: observed 18th to 23rd day, 0 = non-treated, 100 = complete kill
Source text: as §1

[3] = system: redroot pigweed; assay: Test Example 1: foliage treatment, upland pot test; format: in vivo, Amaranthus retroflexus L.; settings: observed 18th to 23rd day, 0 = non-treated, 100 = complete kill
Source text: as §1

[4] = system: prickly sida; assay: Test Example 1: foliage treatment, upland pot test; format: in vivo, Sida spinosa L.; settings: observed 18th to 23rd day, 0 = non-treated, 100 = complete kill
Source text: as §1

[5] = system: velvetleaf; assay: Test Example 1: foliage treatment, upland pot test; format: in vivo, Abutilon theophrasti MEDIC.; settings: observed 18th to 23rd day, 0 = non-treated, 100 = complete kill
Source text: as §1

[6] = system: rice; assay: Test Example 1: foliage treatment, upland pot test; format: in vivo, Oryza sativa L.; settings: crop, observed 18th to 23rd day, 0 = non-treated, 100 = complete kill
Source text: as §1

[7] = system: corn; assay: Test Example 1: foliage treatment, upland pot test; format: in vivo, Zea mays L.; settings: crop, observed 18th to 23rd day, 0 = non-treated, 100 = complete kill
Source text: as §1

[8] = system: soybean; assay: Test Example 1: foliage treatment, upland pot test; format: in vivo, Glycine max Merr.; settings: crop, observed 18th to 23rd day, 0 = non-treated, 100 = complete kill
Source text: as §1

[9] = system: barnyardgrass; assay: Test Example 2: soil surface treatment, upland pot test; format: in vivo, Echinochloa crus-galli L.; settings: observed 20th to 28th day
In short: (§2)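 Upland soil in pots of 1/170,000 ha is sown; on day 1 after sowing the formulated compound (wettable powder or emulsifiable concentrate, predetermined a.i. amount, water volume 1,500 L/ha) is applied to the soil surface with a small sprayer. Percent control is judged by eye 20–28 days later.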

[10] = system: crabgrass; assay: as above; format: in vivo, Digitaria sanguinalis L.; settings: observed 20th to 28th day
In short: as §2

[11] = system: green foxtail; assay: as above; format: in vivo, Setaria viridis L.; settings: observed 20th to 28th day
In short: as §2

[12] = system: redroot pigweed; assay: as above; format: in vivo, Amaranthus retroflexus L.; settings: observed 20th to 28th day
In short: as §2

[13] = system: prickly sida; assay: as above; format: in vivo, Sida spinosa L.; settings: observed 20th to 28th day
In short: as §2

[14] = system: velvetleaf; assay: as above; format: in vivo, Abutilon theophrasti MEDIC.; settings: observed 20th to 28th day
In short: as §2

[15] = system: rice; assay: as above; format: in vivo, Oryza sativa L.; settings: observed 20th to 28th day
In short: as §2

[16] = system: corn; assay: as above; format: in vivo, Zea mays L.; settings: observed 20th to 28th day
In short: as §2

[17] = system: soybean; assay: as above; format: in vivo, Glycine max Merr.; settings: observed 20th to 28th day
In short: as §2

[18] = system: japanese bulrush; assay: Test Example 3: paddy pot test, application under submerged conditions; format: in vivo, Scirpus juncoides; settings: submerged application at 0.5 leaf stage, visually observed 14 days after application, 0 = non-treated, 100 = complete kill
In short: (§3)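 Barnyardgrass and japanese bulrush sown in flooded paddy soil in greenhouse pots, japanese ribbon wapato tubers planted 1–2 days later; water depth kept at 3–4 cm. Diluted wettable powder or emulsifiable concentrate applied into water at 0.5-leaf or primary-leaf stage at set active-ingredient doses. Growth control scored visually at 14 days, 0 (untreated) to 100% (complete kill).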

[19] = system: japanese ribbon wapato; assay: as above; format: in vivo, Sagittaria pygniaea; settings: submerged application at primary leaf stage, visually observed 14 days after application, 0 = non-treated, 100 = complete kill
In short: as §3

[20] = system: rice (var. Nihonbare); assay: Test Example 3: paddy pot test, transplanted rice; format: in vivo, Oryza sativa L.; settings: applied 4th day after transplantation, visually observed 21st day after application, 0 = non-treated, 100 = complete kill
In short: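 Rice (var. Nihonbare) at 2 leaf stage transplanted 3 cm deep into puddled paddy soil under 3–4 cm flooding; on day 4 after transplanting, diluted wettable powder or emulsifiable concentrate applied by pipette under submerged conditions at a set active-ingredient dose. Growth scored visually 21 days after application, 0 (untreated) to 100 (complete kill) %.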

[21] = system: crabgrass; assay: Test Example 1: foliage treatment, upland pot test; format: in vivo, Digitaria sanguinalis L.; settings: active ingredient 500 g/ha, observed 18th to 23rd day, 0 = non-treated, 100 = complete kill
Source text: as §1

[22] = system: barnyardgrass; assay: Test Example 3: paddy pot test, application under submerged conditions; format: in vivo, Echinochloa crus-galli L.; settings: submerged application at 0.5 leaf stage, visually observed 14 days after application, 0 = non-treated, 100 = complete kill
In short: as §3

Compound	Growth controlling degree (%) Barnyardgrass ([1]; active ingredient 1000 g/ha) [%]	Growth controlling degree (%) Redroot pigweed ([3]; active ingredient 1000 g/ha) [%]	Growth controlling degree (%) Prickly sida ([4]; active ingredient 1000 g/ha) [%]	Growth controlling degree (%) Velvetleaf ([5]; active ingredient 1000 g/ha) [%]	Growth controlling degree (%) Rice ([6]; active ingredient 1000 g/ha) [%]	Growth controlling degree (%) Corn ([7]; active ingredient 1000 g/ha) [%]	Growth controlling degree (%) Soybean ([8]; active ingredient 1000 g/ha) [%]	Growth controlling degree (%) Barnyardgrass ([9]; active ingredient 500 g/ha) [%]	Growth controlling degree (%) Crabgrass ([10]; active ingredient 500 g/ha) [%]	Growth controlling degree (%) Green foxtail ([11]; active ingredient 500 g/ha) [%]	Growth controlling degree (%) Velvetleaf ([14]; active ingredient 500 g/ha) [%]	Growth controlling degree (%) Rice ([15]; active ingredient 500 g/ha) [%]	Growth controlling degree (%) Corn ([16]; active ingredient 500 g/ha) [%]	Growth controlling degree (%) Soyabean ([17]; active ingredient 500 g/ha) [%]	Growth controlling degree (%) Redroot pigweed ([12]; active ingredient 500 g/ha) [%]	Growth controlling degree (%) Prickly sida ([13]; active ingredient 500 g/ha) [%]	Growth controlling degree (%) Barnyardgrass ([22]; active ingredient 250 g/ha) [%]	Growth controlling degree (%) Japanese bulrush ([18]; active ingredient 250 g/ha) [%]	Growth controlling degree (%) Japanese ribbon wapato ([19]; active ingredient 250 g/ha) [%]	Growth controlling degree (%) Rice ([20]; active ingredient 250 g/ha) [%]	also measured
CC(C)C(c1cnccc1C(F)(F)F)N(C)C(=O)Cc1ccccc1Cl (stereo not shown) [I-26]	90	90	80	80	30	30	50	–	–	–	–	–	–	–	–	–	–	–	–	–	Growth controlling degree (%) Green foxtail ([2]; active ingredient 1000 g/ha): 70%; Growth controlling degree (%) Barnyardgrass ([9]; active ingredient 250 g/ha): 80%; Growth controlling degree (%) Crabgrass ([10]; active ingredient 250 g/ha): 80%; Growth controlling degree (%) Green foxtail ([11]; active ingredient 250 g/ha): 80%; Growth controlling degree (%) Redroot pigweed ([12]; active ingredient 250 g/ha): 70%; Growth controlling degree (%) Prickly sida ([13]; active ingredient 250 g/ha): 70%; Growth controlling degree (%) Velvetleaf ([14]; active ingredient 250 g/ha): 80%; Growth controlling degree (%) Rice ([15]; active ingredient 250 g/ha): 10%; Growth controlling degree (%) Corn ([16]; active ingredient 250 g/ha): 40%; Growth controlling degree (%) Soyabean ([17]; active ingredient 250 g/ha): 0%; Growth controlling degree (%) Japanese bulrush ([18]; active ingredient 500 g/ha): 90%; Growth controlling degree (%) Japanese ribbon wapato ([19]; active ingredient 500 g/ha): 10%; Growth controlling degree (%) Rice ([20]; active ingredient 500 g/ha): 20%
CC(C)C(c1cnccc1Cl)N(C)C(=O)Cc1cccc(F)c1F (stereo not shown) [I-72]	–	–	–	–	–	–	–	80	70	60	0	0	0	0	–	–	–	–	–	–	Growth controlling degree (%) Barnyardgrass ([1]; active ingredient 500 g/ha): 0%; Growth controlling degree (%) Crabgrass [21]: 70%; Growth controlling degree (%) Green foxtail ([2]; active ingredient 500 g/ha): 10%; Growth controlling degree (%) Redroot pigweed ([3]; active ingredient 500 g/ha): 60%; Growth controlling degree (%) Prickly sida ([4]; active ingredient 500 g/ha): 60%; Growth controlling degree (%) Velvetleaf ([5]; active ingredient 500 g/ha): 85%; Growth controlling degree (%) Corn ([7]; active ingredient 500 g/ha): 40%; Growth controlling degree (%) Soybean ([8]; active ingredient 500 g/ha): 20%; Growth controlling degree (%) Barnyardgrass ([22]; active ingredient 125 g/ha): 90%; Growth controlling degree (%) Japanese bulrush ([18]; active ingredient 125 g/ha): 70%; Growth controlling degree (%) Japanese ribbon wapato ([19]; active ingredient 125 g/ha): 50%; Growth controlling degree (%) Rice ([20]; active ingredient 125 g/ha): 0%
CCN(C(=O)Cc1cccc(C(F)(F)F)c1)C(c1cnccc1C(F)(F)F)C(C)C (stereo not shown) [I-75]	70	60	80	90	20	10	30	100	100	100	70	0	10	0	40	80	100	70	40	0	–
CC(C)C(c1cnccc1C(F)(F)F)N(C)C(=O)CC1CCCCC1 (stereo not shown) [I-164]	–	–	–	–	–	–	–	70	98	85	40	60	20	20	70	60	100	98	0	10	Growth controlling degree (%) Barnyardgrass ([1]; active ingredient 500 g/ha): 60%; Growth controlling degree (%) Crabgrass [21]: 60%; Growth controlling degree (%) Green foxtail ([2]; active ingredient 500 g/ha): 60%; Growth controlling degree (%) Prickly sida ([4]; active ingredient 500 g/ha): 80%; Growth controlling degree (%) Velvetleaf ([5]; active ingredient 500 g/ha): 85%; Growth controlling degree (%) Rice ([6]; active ingredient 500 g/ha): 50%; Growth controlling degree (%) Corn ([7]; active ingredient 500 g/ha): 50%; Growth controlling degree (%) Soybean ([8]; active ingredient 500 g/ha): 30%
CCN(C(=O)Cc1cccc(C(F)(F)F)c1F)C(c1cnccc1C(F)(F)F)C(C)C (stereo not shown) [I-76]	80	80	70	90	40	95	70	70	98	100	50	10	0	0	70	100	100	100	60	10	–
CC(C)C(c1cnccc1C(F)(F)F)N(C)C(=O)COc1ccc(F)cc1 (stereo not shown) [I-241]	–	–	–	–	–	–	–	100	98	100	70	20	40	20	90	100	100	95	80	0	Growth controlling degree (%) Barnyardgrass ([1]; active ingredient 500 g/ha): 70%; Growth controlling degree (%) Crabgrass [21]: 95%; Growth controlling degree (%) Green foxtail ([2]; active ingredient 500 g/ha): 70%; Growth controlling degree (%) Prickly sida ([4]; active ingredient 500 g/ha): 80%; Growth controlling degree (%) Velvetleaf ([5]; active ingredient 500 g/ha): 80%; Growth controlling degree (%) Rice ([6]; active ingredient 500 g/ha): 20%; Growth controlling degree (%) Corn ([7]; active ingredient 500 g/ha): 30%; Growth controlling degree (%) Soybean ([8]; active ingredient 500 g/ha): 80%
